From patent US8278480B2, “Salts, aqueous liquid compositions containing salts of S-(+)-abscisic acid and methods of their preparation” (Valent BioSciences Corporation, priority 2008, dated 2012)
Values joined by “and” are separate entries in the source; they are usually repeats but may differ in a detail not shown here. Identical values can stand only once.

Tests used:
Format in all cases: in vivo, Tomato (variety: Rutgers)
[1] = system: tomato leaf transpiration; test: Tomato leaf transpiration inhibition after foliar spray (LI-1600 porometer); settings: for Transpiration rate (% of control), 1 day after treatment: day 1; for Transpiration rate (% of control), 2 days after treatment: day 2; for Transpiration rate (% of control), 3 days after treatment: day 3; for Transpiration rate (% of control), 4 days after treatment: day 4; for Transpiration rate (% of control), 7 days after treatment: day 7; for ABA dose to achieve 50% inhibition of transpiration: from linear regression of 3-day average transpiration rate on log dose
Experimental: (§1) Preparation of plant specimens for use in the treatment studies of the EXAMPLES that follow was carried out as follows. Tomato (variety: Rutgers) seeds were sown in an 18-cell flat filled with Promix PGX (available from Premier Horticulture Inc., Quakertown Pa.) and grown for 3 weeks to allow for germination and initial growth. Plants were then transplanted into pots (18 cm in diameter and 18 cm in height), filled with Promix BX (available from Premier Horticulture Inc., Quakertown Pa.), and grown for one or two more weeks before treatment, depending on temperature and available light. Plants received daily irrigation and weekly fertilizer (1 g/L all purpose fertilizer 20-20-20, available from The Scotts Company, Marysville, Ohio).
(§2) All treatment solutions were made up with distilled water. The (S)-(+)-abscisic acid (95% active ingredient) is available from Lomon BioTechnology Co., Ltd. (Shichuan, China). The prior art aqueous solution composition of the ammonium salt of (S)-(+)-abscisic acid as prepared in Example 11 above was used as a positive treatment control for most of the studies.
(§3) All experiments were conducted using a randomized complete block experimental design. Solutions of (S)-(+)-abscisic acid and blank treatments (plain water) were applied by spray to the aerial parts of the tomato plants at the rate of 24 mL per 6 plants. Plants were then placed in a transparent chamber with humidity controlled within the range of 40 to 60% relative humidity. Leaf transpiration rates were measured at 1, 2, 3, 4 and 7 days after treatment. Measurements were conducted using a LI-1600 Steady State Porometer (LI-Cor, Lincoln, Nebr.). Each day the transpiration rate of the plants of each treatment group was normalized to a percentage of the transpiration rate of untreated plants (plants sprayed with water only) in order to control for day-to-day variability in plant status caused by changes of environmental conditions such as light intensity and temperature. Data for each plant was also averaged over a 3-day period to balance the short term and long term effect of (S)-(+)-abscisic acid on tomato leaf transpiration as well as to reduce experimental variability.
The regression equation of each (S)-(+)-abscisic acid salt as well as abscisic acid concentrations for 50% inhibition of transpiration were calculated. The relative potency of two ABA salts is the reciprocal of the ratio of (S)-(+)-abscisic acid concentration required for 50% transpiration inhibition for each composition.

tomato plant height = test: Tomato plant height 7 days after treatment (growth suppression); settings: 250 ppm (1 mg) (S)-(+)-abscisic acid, foliar spray; additives as in label
Experimental: as §1, §2
as §3, with “variability. It is important to note that no phytotoxicity was observed on any of the plants treated with the compositions of the present invention.” for “variability.”
In this experiment, the fresh weights of the aerial parts of the tomato plants and their heights were also measured at the end of the experiment, 7 days after treatments were applied, in order to assess the relative growth suppressing activity of the compositions.

[2] = system: tomato shoot fresh weight; test: Tomato shoot fresh weight 7 days after treatment (growth suppression); settings: foliar spray
Experimental: as §1, §2, §3
In this experiment, the fresh weights of the aerial parts of the tomato plants were also measured at the end of the experiment, 7 days after treatments were applied, in order to assess the relative growth suppressing activity of the compositions.

[3] = 462 ppm ChI, no (S)-(+)-abscisic acid
[4] = (S)-(+)-abscisic acid dose 0.3 mg, foliar spray
[5] = (S)-(+)-abscisic acid dose 1 mg, foliar spray
[6] = (S)-(+)-abscisic acid dose 3 mg, foliar spray
[7] = (S)-(+)-abscisic acid dose 10 mg, foliar spray
[8] = foliar spray, 250 ppm (S)-(+)-abscisic acid (1 mg), additives as in label
[9] = reciprocal of ratio of doses for 50% transpiration inhibition
[10] = 332 ppm KI, no (S)-(+)-abscisic acid

SMILES | Transpiration rate (% of control), Average of 3 days after treatment [1, 4] | Transpiration rate (% of control), Average of 3 days after treatment [1, 5] | Transpiration rate (% of control), Average of 3 days after treatment [1, 6] | Transpiration rate (% of control), Average of 3 days after treatment [1, 7] | Transpiration rate (% of control), 7-Day Average [1, 8] | Transpiration rate (% of control), 1 day after treatment [1, 8] | Transpiration rate (% of control), 2 days after treatment [1, 8] | Transpiration rate (% of control), 3 days after treatment [1, 8] | Transpiration rate (% of control), 4 days after treatment [1, 8] | Transpiration rate (% of control), 7 days after treatment [1, 8] | ABA dose to achieve 50% inhibition of transpiration [1] [mg] | also measured
C[N+](C)(C)CCO.[I-] [ChI, choline iodide, reference compound] | – | – | – | – | – | – | – | – | – | – | – | Transpiration rate (% of control), 7-Day Average [1, 3]: 100.6 % of control; Transpiration rate (% of control), 1 day after treatment [1, 3]: 96.4 % of control; Transpiration rate (% of control), 2 days after treatment [1, 3]: 104.2 % of control; Transpiration rate (% of control), 3 days after treatment [1, 3]: 104.5 % of control; Transpiration rate (% of control), 4 days after treatment [1, 3]: 98.9 % of control; Transpiration rate (% of control), 7 days after treatment [1, 3]: 98.9 % of control
CC1=CC(=O)CC(C)(C)[C@@]1(O)/C=C/C(C)=C\C(=O)[O-].C[N+](C)(C)C [Example 3, Tetramethylammonium Salt of (S)-(+)-Abscisic Acid] | 79 % of control | 65 % of control | 52 % of control | 38 % of control | 73.7 % of control | 59.1 % of control | 63.6 % of control | 71.9 % of control | 78.6 % of control | 95.4 % of control | 3.59 | Relative potency compared to the trimethylamine salt composition of Comparative Example 13 [1, 9]: 4.6 times
CC1=CC(=O)CC(C)(C)[C@@]1(O)/C=C/C(C)=C\C(=O)O.CN(C)C(=N)N(C)C [Example 6, Tetramethylguanidinium Salt of (S)-(+)-Abscisic Acid] | 71 % of control | 61 % of control | 42 % of control | 31 % of control | 70.8 % of control and 76.2 % of control and 78.7 % of control | 51.0 % of control and 51.9 % of control and 47.8 % of control | 61.3 % of control and 64.3 % of control and 69.0 % of control | 71.2 % of control and 75.6 % of control and 84.5 % of control | 79.9 % of control and 89.9 % of control and 93.2 % of control | 90.3 % of control and 99.1 % of control and 99.0 % of control | 1.93 | Plant height (cm) 7 days after treatment (tomato plant height): 30.1 cm
CC1=CC(=O)CC(C)(C)[C@@]1(O)/C=C/C(C)=C\C(=O)[O-].[K+] [Example 12, Potassium Salt of (S)-(+)-Abscisic Acid, reference compound] | 76 % of control | 66 % of control | 55 % of control | 44 % of control | 77.0 % of control | 55.0 % of control | 64.9 % of control | 76.9 % of control | 90.9 % of control | 97.3 % of control | 5.28 | Relative potency compared to the ammonium salt composition of Comparative Example 11 [1, 9]: 0.98 times
CC1=CC(=O)CC(C)(C)[C@@]1(O)/C=C/C(C)=C\C(=O)O.CN(C)C [Example 13, Trimethylamine Salt of (S)-(+)-Abscisic Acid, reference compound] | 84 % of control | 74 % of control | 65 % of control | 54 % of control | 81.2 % of control | 65.5 % of control | 73.6 % of control | 81.7 % of control | 88.2 % of control | 97.0 % of control | 16.59 | –
CC1=CC(=O)CC(C)(C)[C@@]1(O)/C=C/C(C)=C\C(=O)O.CCCCN(CCCC)CCCC [Example 14, Tributylamine Salt of (S)-(+)-Abscisic Acid, reference compound] | 82 % of control | 70 % of control | 53 % of control | 40 % of control | 79.5 % of control | 59.7 % of control | 71.3 % of control | 78.8 % of control | 87.4 % of control | 100.3 % of control | 4.34 | Fresh weight (g) 7 days after treatment ([2]; 75 ppm (0.3 mg) (S)-(+)-abscisic acid): 15.7 g; Fresh weight (g) 7 days after treatment ([2]; 250 ppm (1 mg) (S)-(+)-abscisic acid, additives as in label): 15.3 g; Fresh weight (g) 7 days after treatment ([2]; 750 ppm (3 mg) (S)-(+)-abscisic acid): 15.0 g; Fresh weight (g) 7 days after treatment ([2]; 2500 ppm (10 mg) (S)-(+)-abscisic acid): 13.9 g
[I-].[K+] [KI, potassium iodide, reference compound] | – | – | – | – | – | – | – | – | – | – | – | Transpiration rate (% of control), 4 Day Average ([1]; 332 ppm KI, no (S)-(+)-abscisic acid, 4-day average): 100.7 % of control; Transpiration rate (% of control), 1 day after treatment [1, 10]: 100.2 % of control; Transpiration rate (% of control), 2 days after treatment [1, 10]: 100.5 % of control; Transpiration rate (% of control), 3 days after treatment [1, 10]: 99.6 % of control; Transpiration rate (% of control), 4 days after treatment [1, 10]: 102.6 % of control
